{"source": "patent US9394549B2", "about": "“Method for producing useful chemical substance from terephthalic acid potassium salt” (GENARIS, INC., priority 2012, dated 2016)", "key": {"[1]": {"tested_on": "Escherichia coli M7032 (pUXPEaLT_tpaA_tpaK_Pm_fucO_I7L_aldA) strain", "experiment": "Decomposition of ethylene glycol during production of TPA-DHD", "assay_type": "cell-based", "conditions": "raw material dipotassium terephthalate with ethylene glycol, final concentration 72 mM"}, "[2]": {"tested_on": "Escherichia coli K-12 M7032 strain", "experiment": "Decomposition of ethylene glycol during production of TPA-DHD, control strain", "assay_type": "cell-based", "conditions": "raw material dipotassium terephthalate with ethylene glycol, final concentration 72 mM", "description": "Subsequently, in the same manner as described in Example 1, Escherichia coli M7032 (pUXPEaLT_tpaA_tpaK_Pm_fucO_I7L_aldA) strain and Escherichia coli K-12 M7032 strain which serves as a control were cultured in a mini jar fermentor. Concurrently with administration of dipotassium terephthalate which serves as a raw material, 0.278 ml (final concentration 72 mM) of ethylene glycol was placed.\nSampling was carried out 48 hours after the start of main culture. Each of the samples was subjected to analysis in conditions shown in Table 1 by an LC-TOF type mass spectrometer (Waters Corporation, LCT Premier XE). Identification of terephthalic acid was carried out with a combination of retention time of high performance liquid chromatography and an accurate mass value from the mass spectrometer, comparing to a standard sample of terephthalic acid. Among substances appeared as terephthalic acid decreased, TPA-DHD was identified on the basis of a predicted accurate mass value of TPA-DID. Further, quantification of TPA-DHD was carried out on the basis of a calibration curve prepared from an amount of terephthalic acid decreased and an increase in the peak area of TPA-DHD. […]"}, "[3]": {"experiment": "Solubility of terephthalic acid salts in water", "assay_type": "physicochemical", "description": "2.99 g (0.018 mol) of terephthalic acid (in a form of powder, manufactured by Sigma-Aldrich Japan; hereinafter, unless otherwise specified, reagents used were ones manufactured by Sigma-Aldrich Japan) and 0.036 mol of potassium hydroxide (in a form of granule) were put in a 50 mL-glass beaker. Distilled water was filled to obtain a volume of about 15 mL. The resulting mixture was covered with aluminum foil as a lid, heated at 50° C. for 60 minutes while stirred by a hot stirrer (manufactured by AS ONE Corporation), and allowed to cool to 30° C. After stirring at 30° C. for 120 minutes or more and confirming the precipitate remained in the solution, 1 mL of the solution was collected and subjected to centrifugation using a high speed micro centrifuge (manufactured by Tomy Seiko Co., Ltd.) (30° C., 14000 rpm (17800 g), 30 seconds) to collect the supernatant.\nThe concentration of terephthalic acid in this supernatant was measured and regarded as the solubility of dipotassium terephthalate. With regard to the measurement of the concentration of terephthalic acid, the sample was diluted 16,000-fold with 2.5% aqueous acetonitrile solution and analyzed in separation conditions of Table 1 using high performance liquid chromatography (Waters Corporation, LCT Premier XE). Thereafter, the concentration was calculated on the basis of a ratio of the area of terephthalic acid peaks using aqueous terephthalic acid solution with a known concentration as a control."}}, "note": "Like-named read-outs stand apart in the source and are kept apart here."}
{"smiles": "O=C(O)C1=CC(O)C(O)(C(=O)O)C=C1", "note": "(stereo not drawn) [TPA-DHD, terephthalate 1,2-cis-dihydrodiol]", "values": [{"measurement": "amount of TPA-DHD produced 48 hours after the start of the culture", "setting": "[1]", "value": 10.5, "unit": "g/L"}, {"measurement": "amount of TPA-DHD produced 48 hours after the start of the culture", "setting": "[2]", "value": 11.1, "unit": "g/L"}]}
{"smiles": "N.O=C([O-])c1ccc(C(=O)O)cc1.[Na+]", "note": "[1-sodium 4-ammonium terephthalate, reference compound]", "values": [{"measurement": "solubility", "setting": "[3]", "value": 612, "unit": "mM"}, {"measurement": "solubility in water at 30° C.", "setting": "[3]", "value": "about 0.61 M"}]}
{"smiles": "N.N.O=C(O)c1ccc(C(=O)O)cc1", "note": "[Diammonium terephthalate, diammonium terephthalate, reference compound]", "values": [{"measurement": "solubility", "setting": "[3]; 30 °C, water, thermodynamic from solid, in water at 30° C., rounded values of the summary, read-out: solubility in water at 30° C.", "value": "~510", "unit": "mM"}, {"measurement": "solubility", "setting": "[3]; 30 °C, water, thermodynamic from solid, in water, 30° C., read-out: Solubility", "value": 512, "unit": "mM"}]}
